Reference: publication PMC11873939, “Target Identification with Live-Cell Photoaffinity Labeling and Mechanism of Action Elucidation of ARN23765, a Highly Potent CFTR Corrector” (Journal of Medicinal Chemistry, 2025)

Columns and labels:
[1] = target: T1, F508del/R1070W-CFTR (Homo sapiens, UniProt P13569, DEL508-508/R1070W); test: FLIPR membrane potential assay of CFTR channel activity in transfected HEK293 cells; format: cell-based; details: HEK293, 24 h; ARN23765 10 nM, VX-661 3 μM
T1 construct: CFTR identification in pull-down studies and analysis of full-length CFTR in protein maturation assays; expressed in transfected cells; host or cells: HEK293 (transient)
Description: (§1) HS-YFP-based assay for CFTR activity
(§2) Twenty-four hours after seeding on 96-well plates, CFBE41o- cells stably over-expressing F508del-CFTR and the HS-YFP were treated with test compounds at different concentrations in the 3 nM-10 µM range.1 Cells treated with vehicle alone (DMSO) and with ARN23765, respectively, served as negative and positive controls. The following day, cells were washed with PBS containing (in mM) 137 NaCl, 2.7 KCl, 8.1 Na2HPO4, 1.5 KH2PO4, 1.0 CaCl2, and 0.5 MgCl2. Cells were then incubated for 25 min with […] of PBS plus forskolin (20 µM) and VX-770 (1 µM) to maximally stimulate F508del-CFTR. Cells were then transferred to a microplate reader (FluoStar Galaxy; BMG Labtech, Offenburg, Germany) for CFTR activity determination. The plate reader was equipped with high-quality excitation (HQ500/20X: 500 ± 10 nm) and emission (HQ535/30M: 535 ± 15 nm) filters for YFP (Chroma Technology). Each assay comprised a continuous 14 s fluorescence reading, 2 s before and 12 s after injection of […] of an iodide-containing solution (PBS with Cl- replaced by I-; final I- concentration […]). Data were normalized to the initial background-subtracted fluorescence. […]
(§3) Cell lysates or eluates from pull-down experiments were resolved by SDS-PAGE on 4-8 % tris-acetate gels (EA0378BOX, Life technologies) and were transferred into PVDF membranes (Immobilion-E IEVH00005, Millipore). […] Images were acquired with Chemidoc MP (BIO-RAD laboratories) and quantified with Image J software.
(§4) CFTR Channel function analysis by fluorometric imaging plate reader functional (FLIPR) assay FLIPR assay was performed as previously described.3 Briefly, HEK293 cells were seeded in 96-well plates (black, flat bottom, Corning) and transfected with mutated CFTR constructs. […]
(§5) µM) for 24 h at 30 °C or 37 °C. […] The plate was then read in a fluorescence plate reader (SpectraMax i3, Molecular Devices) at 37 °C (excitation: 530 nm, emission: 560 nm). […] CFTR-mediated depolarization was detected as an increase in fluorescence. […] The peak changes in fluorescence were normalized to fluorescence immediately […]

[2] = target: T2, R170G-CFTR (Homo sapiens, UniProt P13569, R170G); test: as above; format: cell-based; details: HEK293, 24 h, 10 nM
T2 construct: CFTR identification in pull-down studies and analysis of full-length CFTR in protein maturation assays; expressed in transfected cells; host or cells: HEK293 (transient)
Description: as §1, §2, §3, §4, §5

T1 sequence (P13569 with tags, fused parts or gaps DEL508-508/R1070W): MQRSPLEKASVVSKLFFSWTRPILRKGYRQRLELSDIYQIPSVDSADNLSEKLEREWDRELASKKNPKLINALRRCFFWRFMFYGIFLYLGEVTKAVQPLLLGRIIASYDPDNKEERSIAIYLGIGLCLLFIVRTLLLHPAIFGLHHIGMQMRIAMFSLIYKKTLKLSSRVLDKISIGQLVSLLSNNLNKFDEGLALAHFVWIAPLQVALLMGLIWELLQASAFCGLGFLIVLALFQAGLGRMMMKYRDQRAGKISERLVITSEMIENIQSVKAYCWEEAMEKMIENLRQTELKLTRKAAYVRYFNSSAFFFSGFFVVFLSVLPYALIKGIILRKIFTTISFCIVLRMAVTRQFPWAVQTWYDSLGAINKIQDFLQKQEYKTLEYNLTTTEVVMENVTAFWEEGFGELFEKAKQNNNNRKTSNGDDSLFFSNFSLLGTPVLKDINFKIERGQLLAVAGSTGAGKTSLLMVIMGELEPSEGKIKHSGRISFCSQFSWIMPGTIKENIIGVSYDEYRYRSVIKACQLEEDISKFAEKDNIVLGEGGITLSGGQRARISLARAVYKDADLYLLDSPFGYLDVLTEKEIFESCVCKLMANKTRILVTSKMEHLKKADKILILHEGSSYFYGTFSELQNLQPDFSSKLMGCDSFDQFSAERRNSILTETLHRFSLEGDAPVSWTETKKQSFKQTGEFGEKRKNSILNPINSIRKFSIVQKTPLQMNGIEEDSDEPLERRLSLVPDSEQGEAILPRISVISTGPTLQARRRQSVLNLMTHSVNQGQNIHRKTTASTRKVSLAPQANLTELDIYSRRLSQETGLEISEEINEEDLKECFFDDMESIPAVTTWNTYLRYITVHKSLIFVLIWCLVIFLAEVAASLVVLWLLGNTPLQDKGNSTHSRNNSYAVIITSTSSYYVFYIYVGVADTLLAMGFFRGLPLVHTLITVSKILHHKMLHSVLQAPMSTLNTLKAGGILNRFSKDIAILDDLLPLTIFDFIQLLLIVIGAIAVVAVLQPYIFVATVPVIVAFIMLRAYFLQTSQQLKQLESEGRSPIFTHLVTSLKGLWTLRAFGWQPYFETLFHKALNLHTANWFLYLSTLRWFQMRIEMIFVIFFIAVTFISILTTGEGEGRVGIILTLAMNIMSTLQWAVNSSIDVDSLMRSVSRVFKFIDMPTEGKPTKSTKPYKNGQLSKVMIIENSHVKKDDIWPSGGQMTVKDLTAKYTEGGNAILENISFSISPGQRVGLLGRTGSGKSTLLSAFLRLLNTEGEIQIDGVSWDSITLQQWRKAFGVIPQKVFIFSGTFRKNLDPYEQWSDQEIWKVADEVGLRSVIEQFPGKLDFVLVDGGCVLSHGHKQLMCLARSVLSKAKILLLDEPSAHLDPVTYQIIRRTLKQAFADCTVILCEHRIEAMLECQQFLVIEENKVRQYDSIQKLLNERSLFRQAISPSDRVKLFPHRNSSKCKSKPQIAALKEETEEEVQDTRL
T2 sequence (P13569 whole entry R170G): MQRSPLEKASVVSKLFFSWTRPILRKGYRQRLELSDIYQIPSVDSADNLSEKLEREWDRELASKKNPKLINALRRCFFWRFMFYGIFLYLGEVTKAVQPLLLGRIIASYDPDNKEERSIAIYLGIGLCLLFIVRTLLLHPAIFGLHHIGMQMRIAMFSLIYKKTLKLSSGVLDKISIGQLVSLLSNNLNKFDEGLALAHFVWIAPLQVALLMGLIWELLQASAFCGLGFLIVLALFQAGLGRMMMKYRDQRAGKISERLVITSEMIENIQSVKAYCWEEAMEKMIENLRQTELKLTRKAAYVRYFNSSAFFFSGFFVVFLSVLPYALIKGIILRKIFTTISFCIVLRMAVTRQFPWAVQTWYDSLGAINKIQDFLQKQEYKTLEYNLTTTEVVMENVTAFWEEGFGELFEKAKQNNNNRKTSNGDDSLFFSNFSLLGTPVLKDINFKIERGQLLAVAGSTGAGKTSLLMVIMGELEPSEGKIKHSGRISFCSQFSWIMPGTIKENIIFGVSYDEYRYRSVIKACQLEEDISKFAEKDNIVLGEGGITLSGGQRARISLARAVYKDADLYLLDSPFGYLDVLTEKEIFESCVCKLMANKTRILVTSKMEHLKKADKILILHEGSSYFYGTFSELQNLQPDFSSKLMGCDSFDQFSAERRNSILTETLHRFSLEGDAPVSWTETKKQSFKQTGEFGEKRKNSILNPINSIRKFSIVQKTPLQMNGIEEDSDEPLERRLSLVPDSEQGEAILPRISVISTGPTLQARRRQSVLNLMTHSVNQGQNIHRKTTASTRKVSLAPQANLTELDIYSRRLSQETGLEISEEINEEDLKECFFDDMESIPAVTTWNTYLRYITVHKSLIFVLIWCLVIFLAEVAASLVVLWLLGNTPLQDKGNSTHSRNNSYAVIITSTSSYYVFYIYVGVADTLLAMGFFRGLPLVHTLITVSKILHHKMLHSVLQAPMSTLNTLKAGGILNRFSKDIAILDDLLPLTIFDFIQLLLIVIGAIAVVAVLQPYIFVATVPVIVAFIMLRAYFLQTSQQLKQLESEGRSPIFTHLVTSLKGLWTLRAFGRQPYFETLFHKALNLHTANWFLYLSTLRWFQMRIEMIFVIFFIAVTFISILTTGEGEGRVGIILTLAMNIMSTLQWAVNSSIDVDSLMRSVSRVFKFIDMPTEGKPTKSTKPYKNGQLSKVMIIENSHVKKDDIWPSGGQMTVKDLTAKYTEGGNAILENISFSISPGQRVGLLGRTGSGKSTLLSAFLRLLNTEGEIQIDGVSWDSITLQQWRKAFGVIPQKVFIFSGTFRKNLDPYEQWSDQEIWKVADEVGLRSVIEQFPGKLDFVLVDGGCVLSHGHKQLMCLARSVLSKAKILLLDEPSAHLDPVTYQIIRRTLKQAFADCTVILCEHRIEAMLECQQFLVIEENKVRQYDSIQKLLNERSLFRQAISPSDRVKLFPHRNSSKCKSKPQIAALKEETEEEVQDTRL

F508del/R1070W channel activity (FLIPR) [1]: further enhanced | R170G-CFTR activity (FLIPR) [2]: improving
SMILES: CN(C(=O)c1cccc(-n2nc(C(F)(F)F)c3c2[C@@H](Oc2ccc(C(=O)O)cc2)CCC3)c1)c1ccc2c(c1)OC(F)(F)O2 [ARN23765]
